This note sets out measurements from US10428081B2, “EGFR inhibitor, preparation method and use thereof” (Shanghai Hansoh Biomedical Co., Ltd., priority 2014, dated 2019).

In one test the target is wild-type EGFR enzyme (Homo sapiens, UniProt P00533). Put plainly: Enzymologic experiment of wild-type (WT) EGFR (TR-FRET). Type of test: biochemical. Particulars: ATP 0.1 to 5 uM. Put shortly: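 Wild-type EGFR (0.1 to 1 nM final) preincubated with serially diluted compound for 10 minutes at room temperature; reaction stopped with EDTA, then labelled antibody added for 1 hour at room temperature. TR-FRET signal converted to inhibition rates; IC50 from curve fitting across concentrations.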

In test [1] the target is exon 20 T790M mutant-type EGFR enzyme (Homo sapiens, UniProt P00533, T790M). Kind of test: Enzymologic experiment of T790M mutant-type EGFR (TR-FRET). Type of test: biochemical. The note with it: for IC50: T790M EGFR enzyme, TR-FRET, ATP 1 to 10 uM; for Selectivity of wild-type/mutant-type: ratio WT IC50 / T790M IC50, enzyme. An outline of the steps: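 Compound dilutions preincubated 10 min at room temperature; reaction ended with EDTA, then labeled antibody added for 1 h at room temperature. Inhibition rates derived from TR-FRET fluorescence signal, and IC50 obtained by curve fitting across concentrations.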

The test system of a further test is A431 cells. Put plainly: Inhibition of A431 cell proliferation (CellTiter-Glo). It counts as cell-based. Particulars: read-out: EGFR IC50 (nM) A431. An outline of the steps: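 Viability read as CellTiter-Glo luminescence; IC50 by curve fitting of inhibition rates.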
(ATP-based viability assays read luminescence as a measure of living cells.)

In a further test the test system is NCI-H1975 cells. Kind of test: Inhibition of NCI-H1975 cell proliferation (CellTiter-Glo). It counts as cell-based. Particulars: for IC50: NCI-H1975 cell proliferation, 72 hours, CellTiter-Glo, read-out: EGFR IC50 (nM) H1975; for Selectivity of wild-type/mutant-type: ratio A431 IC50 / H1975 IC50, cells.

Where two headings read alike, the source gives them in different places.

wild-type EGFR enzyme, sequence (P00533 25-1210): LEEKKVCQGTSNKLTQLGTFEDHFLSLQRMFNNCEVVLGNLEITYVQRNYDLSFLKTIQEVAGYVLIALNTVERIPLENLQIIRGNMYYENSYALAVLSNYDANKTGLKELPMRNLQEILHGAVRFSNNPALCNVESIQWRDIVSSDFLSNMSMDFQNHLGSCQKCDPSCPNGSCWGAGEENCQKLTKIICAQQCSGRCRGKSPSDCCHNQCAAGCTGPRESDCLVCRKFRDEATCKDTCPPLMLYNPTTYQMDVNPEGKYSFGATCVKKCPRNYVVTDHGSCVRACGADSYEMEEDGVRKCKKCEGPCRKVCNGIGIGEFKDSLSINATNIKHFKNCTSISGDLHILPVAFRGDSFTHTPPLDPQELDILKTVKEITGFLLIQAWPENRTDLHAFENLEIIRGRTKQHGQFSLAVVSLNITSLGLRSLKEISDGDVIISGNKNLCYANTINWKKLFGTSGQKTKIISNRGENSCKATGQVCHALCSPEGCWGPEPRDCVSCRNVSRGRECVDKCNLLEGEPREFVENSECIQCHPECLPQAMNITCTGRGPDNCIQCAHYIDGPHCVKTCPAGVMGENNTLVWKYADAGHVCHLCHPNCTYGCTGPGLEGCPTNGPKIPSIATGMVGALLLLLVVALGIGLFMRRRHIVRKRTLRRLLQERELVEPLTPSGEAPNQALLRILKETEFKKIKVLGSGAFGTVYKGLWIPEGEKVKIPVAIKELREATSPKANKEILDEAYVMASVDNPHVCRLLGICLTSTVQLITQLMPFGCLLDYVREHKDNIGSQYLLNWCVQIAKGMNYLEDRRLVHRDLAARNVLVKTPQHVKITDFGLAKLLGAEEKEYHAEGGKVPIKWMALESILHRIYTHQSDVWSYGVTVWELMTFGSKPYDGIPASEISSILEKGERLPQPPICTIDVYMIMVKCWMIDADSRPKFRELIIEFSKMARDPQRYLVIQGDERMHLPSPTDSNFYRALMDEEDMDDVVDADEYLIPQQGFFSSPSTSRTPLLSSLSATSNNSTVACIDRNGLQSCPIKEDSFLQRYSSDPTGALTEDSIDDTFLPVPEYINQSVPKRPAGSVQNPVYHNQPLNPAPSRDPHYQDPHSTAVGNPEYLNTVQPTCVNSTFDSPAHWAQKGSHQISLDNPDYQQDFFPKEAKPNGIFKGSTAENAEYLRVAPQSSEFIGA
exon 20 T790M mutant-type EGFR enzyme, sequence (P00533 25-1210 T790M): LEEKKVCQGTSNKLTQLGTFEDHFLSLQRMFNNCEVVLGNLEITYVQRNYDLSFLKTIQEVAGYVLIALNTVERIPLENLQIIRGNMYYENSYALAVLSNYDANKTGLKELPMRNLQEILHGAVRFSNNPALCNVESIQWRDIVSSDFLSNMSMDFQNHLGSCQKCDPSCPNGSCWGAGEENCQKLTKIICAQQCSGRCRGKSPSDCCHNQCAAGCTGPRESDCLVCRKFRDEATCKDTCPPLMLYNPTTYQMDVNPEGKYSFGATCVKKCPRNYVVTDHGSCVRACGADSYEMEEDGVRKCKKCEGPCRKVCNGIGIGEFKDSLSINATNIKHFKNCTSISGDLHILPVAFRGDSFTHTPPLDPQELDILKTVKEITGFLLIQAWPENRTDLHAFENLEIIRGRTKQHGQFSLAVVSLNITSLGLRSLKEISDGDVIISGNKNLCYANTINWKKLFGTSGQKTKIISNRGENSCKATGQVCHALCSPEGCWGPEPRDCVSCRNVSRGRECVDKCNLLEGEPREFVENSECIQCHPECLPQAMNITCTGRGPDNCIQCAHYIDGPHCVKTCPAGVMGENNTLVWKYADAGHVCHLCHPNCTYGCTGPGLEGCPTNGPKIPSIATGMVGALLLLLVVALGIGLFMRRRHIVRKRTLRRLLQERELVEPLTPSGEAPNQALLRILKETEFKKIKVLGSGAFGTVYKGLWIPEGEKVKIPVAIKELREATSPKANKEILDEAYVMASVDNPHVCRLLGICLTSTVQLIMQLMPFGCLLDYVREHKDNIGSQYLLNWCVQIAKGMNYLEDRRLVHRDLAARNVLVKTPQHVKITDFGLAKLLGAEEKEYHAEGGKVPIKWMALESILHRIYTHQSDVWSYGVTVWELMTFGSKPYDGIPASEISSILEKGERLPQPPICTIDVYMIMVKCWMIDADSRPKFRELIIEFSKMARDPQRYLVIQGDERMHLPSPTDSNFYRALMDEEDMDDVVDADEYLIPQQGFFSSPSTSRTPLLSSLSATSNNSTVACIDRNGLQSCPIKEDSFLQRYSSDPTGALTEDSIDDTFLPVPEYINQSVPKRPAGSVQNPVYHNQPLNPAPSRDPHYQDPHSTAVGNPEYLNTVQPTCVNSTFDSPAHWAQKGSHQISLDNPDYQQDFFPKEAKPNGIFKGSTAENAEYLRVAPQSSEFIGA

Usually IC50 stands for the concentration that inhibits the measured activity by half. `C=CC(=O)Nc1cc(Nc2ncc(C(F)(F)F)c(-n3nc(C)c4cc(C#N)ccc43)n2)c(OC)cc1N(C)CCN(C)C` [Example 106, N-(5-((4-(5-cyano-3-methyl-1H-indazol-1-yl)-5-(trifluoromethyl)pyrimidin-2-yl)amino)-2-((2-(dimethylamino)ethyl)(methyl)amino)-4-methoxyphenyl)acrylamide]: the half-inhibitory concentration (IC50) at wild-type EGFR enzyme is 190 nM; in test [1] it was 0.88 nM; with A431 cells (Homo sapiens, A-431, 72 h), 354 nM; with NCI-H1975 cells (Homo sapiens, NCI-H1975, 72 h), 14.3 nM. For the same compound, the Selectivity of wild-type/mutant-type in test [1] is listed as 216.14; in the test with NCI-H1975 cells it was 24.70.
With `C=CC(=O)Nc1cc(Nc2nccc(-n3nc(C4CC4)c4ccccc43)n2)c(OC)cc1N(C)CCN(C)C` [Example 111, N-(5-((4-(3-cyclopropyl-1H-indazol-1-yl)pyrimidin-2-yl)amino)-2-((2-(dimethylamino)ethyl)(methyl)amino)-4-methoxyphenyl)acrylamide], the IC50 was 2.77 nM against wild-type EGFR enzyme, 0.42 nM in test [1], 314 nM in the test on A431 cells (72 hours) and 5.65 nM in the test with NCI-H1975 cells. Also, the results for the Selectivity of wild-type/mutant-type (in test [1]; in the test on NCI-H1975 cells) were 6.60 and 55.52, respectively.
Consider `C=CC(=O)Nc1cc(Nc2ncc(Cl)c(-n3ncc4cc(C#N)ccc43)n2)c(OC)cc1N(C)CCN(C)C` [Example 51, N-(5-((5-chloro-4-(5-cyano-1H-indazol-1-yl)pyrimidin-2-yl)amino)-2-((2-(dimethylamino)ethyl)(methyl)amino)-4-methoxyphenyl)acrylamide], for which the IC50 against wild-type EGFR enzyme stood at 14.5 nM; in test [1], 0.53 nM; in the test with A431 cells (Homo sapiens, A-431, 72 h), 394 nM; in the test on NCI-H1975 cells (Homo sapiens, NCI-H1975, 72 h), 5.06 nM. In addition, the Selectivity of wild-type/mutant-type amounted to 27.56 in test [1] and 77.94 in the test on NCI-H1975 cells.
On to `C=CC(=O)Nc1cc(Nc2nccc(-n3ncc4cc(OCCOC)ccc43)n2)c(OC)cc1N(C)CCN(C)C` [Example 121, N-(2-((2-(dimethylamino)ethyl)(methyl)amino)-4-methoxy-5-((4-(5-(2-methoxyethoxy)-1H-indazol-1-yl)pyrimidin-2-yl)amino)phenyl)acrylamide], for which the half-inhibitory concentration (IC50) at wild-type EGFR enzyme turned out to be 3.5 nM; in test [1], 0.4 nM; in the test with A431 cells (Homo sapiens, A-431, 72 h) it was 348 nM; in the test on NCI-H1975 cells (Homo sapiens, NCI-H1975, 72 h) it was 2.09 nM. The Selectivity of wild-type/mutant-type in test [1] stood at 8.75; in the test with NCI-H1975 cells, 166.41.
With `C=CC(=O)Nc1cc(Nc2nccc(-c3cn(S(=O)(=O)N(C)C)c4ccccc34)n2)c(OC(F)F)cc1N(C)CCN(C)C` [Example 21, N-(4-(difluoromethoxy)-2-((2-(dimethylamino)ethyl)(methyl)amino)-5-((4-(1-(N,N-dimethylsulfamoyl)-1H-indol-3-yl)pyrimidin-2-yl)amino)phenyl)acrylamide], the IC50 against wild-type EGFR enzyme came to 0.4 nM; in test [1], 0.3 nM; with A431 cells (Homo sapiens, A-431, 72 h), 70.8 nM; in the test on NCI-H1975 cells (Homo sapiens, NCI-H1975, 72 h), 3.23 nM. Also, the Selectivity of wild-type/mutant-type in test [1] stood at 1.33; in the test with NCI-H1975 cells, 21.93.
In the case of `C=CC(=O)Nc1cc(Nc2nccc(-c3cn(C)c4c(C5CC5)cccc34)n2)c(OC)cc1N(C)CCN(C)C` [Example 91, N-(5-((4-(7-cyclopropyl-1-methyl-1H-indol-3-yl)pyrimidin-2-yl)amino)-2-((2-(dimethylamino)ethyl)(methyl)amino)-4-methoxyphenyl)acrylamide], the half-maximal inhibitory concentration (IC50) against wild-type EGFR enzyme came to 14.7 nM; in test [1] it was 2.25 nM; in the test with A431 cells (Homo sapiens, A-431, 72 h), 558 nM; in the test on NCI-H1975 cells (Homo sapiens, NCI-H1975, 72 h), 25.9 nM. The results for the Selectivity of wild-type/mutant-type (in test [1]; in the test with NCI-H1975 cells) were 6.54 and 21.49, respectively.
For the compound `C=CC(=O)Nc1cc(Nc2nccc(-n3ncc4ccc(C#N)cc43)n2)c(OC)cc1N(C)CCN(C)C` [Example 112, N-(5-((4-(6-cyano-1H-indazol-1-yl)pyrimidin-2-yl)amino)-2-((2-(dimethylamino)ethyl)(methyl)amino)-4-methoxyphenyl)acrylamide], the IC50 stood at 46.9 nM on wild-type EGFR enzyme; 3.45 nM in test [1]; 257 nM in the test with A431 cells (Homo sapiens, A-431, 72 h); 15.6 nM in the test on NCI-H1975 cells (Homo sapiens, NCI-H1975, 72 h). Besides, the results for the Selectivity of wild-type/mutant-type (in test [1]; in the test on NCI-H1975 cells) were 13.61 and 16.51, respectively.
Consider `C=CC(=O)Nc1cc(Nc2nccc(-n3ncc4cc(OCCOC)ccc43)n2)c(OC)cc1N(C)CCN1CCCC1` [Example 134, N-(4-methoxy-5-((4-(5-(2-methoxyethoxy)-1H-indazol-1-yl)pyrimidin-2-yl)amino)-2-(methyl(2-(pyrrolidin-1-yl)ethyl)amino)phenyl)acrylamide], for which the half-inhibitory concentration (IC50) on wild-type EGFR enzyme was found to be 19.9 nM; in test [1] it was 1.85 nM; in the test on A431 cells (Homo sapiens, A-431, 72 h), 325 nM; in the test with NCI-H1975 cells (Homo sapiens, NCI-H1975, 72 h), 12.3 nM. For the same compound, the figures for the Selectivity of wild-type/mutant-type (in test [1]; with NCI-H1975 cells) were 10.75 and 26.45, respectively.
With `C=CC(=O)Nc1cc(Nc2ncc(C(F)(F)F)c(-n3cnc4cc(OC)ccc43)n2)c(OC)cc1N(C)CCN(C)C` [Example 67, N-(2-((2-(dimethylamino)ethyl)(methyl)amino)-4-methoxy-5-((4-(5-methoxy-1H-benzo[d]imidazol-1-yl)-5-(trifluoromethyl)pyrimidin-2-yl)amino)phenyl)acrylamide], the concentration for half-maximal inhibition (IC50) at wild-type EGFR enzyme was 378 nM; in test [1], 1.63 nM; with A431 cells (Homo sapiens, A-431, 72 h), 321 nM; in the test on NCI-H1975 cells (Homo sapiens, NCI-H1975, 72 h), 3.73 nM. Moreover, the figures for the Selectivity of wild-type/mutant-type (in test [1]; with NCI-H1975 cells) were 231.9 and 85.95, respectively.
Take `C=CC(=O)Nc1cc(Nc2ncc(Cl)c(-n3nc(CC)c4cc(C#N)ccc43)n2)c(OC)cc1N(C)CCN(C)C` [Example 118, N-(5-((5-chloro-4-(5-cyano-3-ethyl-1H-indazol-1-yl)pyrimidin-2-yl)amino)-2-((2-(dimethylamino)ethyl)(methyl)amino)-4-methoxyphenyl)acrylamide]: the concentration for half-maximal inhibition (IC50) on wild-type EGFR enzyme amounted to 27.9 nM; in test [1], 0.71 nM; in the test on A431 cells (Homo sapiens, A-431, 72 h), 374 nM; in the test with NCI-H1975 cells (Homo sapiens, NCI-H1975, 72 h), 93.7 nM. Moreover, the Selectivity of wild-type/mutant-type in test [1] is 39.30; in the test on NCI-H1975 cells, 3.99.
With `COc1cc(N(C)CCN(C)C)c(NC(=O)/C=C/CN(C)C)cc1Nc1nccc(-c2cn(C3CC3)c3ccccc23)n1` [Example 122, (E)-N-(5-((4-(1-cyclopropyl-1H-indol-3-yl)pyrimidin-2-yl)amino)-2-((2-(dimethylamino)ethyl)(methyl)amino)-4-methoxyphenyl)-4-(dimethylamino)but-2-enamide], the IC50 on wild-type EGFR enzyme worked out at 8.4 nM; in test [1], 0.49 nM; in the test on A431 cells (Homo sapiens, A-431, 72 h), 890 nM; in the test with NCI-H1975 cells (Homo sapiens, NCI-H1975, 72 h), 114 nM. For the same compound, the Selectivity of wild-type/mutant-type in test [1] turned out to be 17.14; with NCI-H1975 cells, 7.84.
On to `C=CC(=O)Nc1cc(Nc2nccc(-c3cn(C)c4ccc(F)c(F)c34)n2)c(OC)cc1N(C)CCN(C)C` [Example 90, N-(5-((4-(4,5-difluoro-1-methyl-1H-indol-3-yl)pyrimidin-2-yl)amino)-2-((2-(dimethylamino)ethyl)(methyl)amino)-4-methoxyphenyl)acrylamide], for which the half-maximal inhibitory concentration (IC50) at wild-type EGFR enzyme was 4.91 nM; in test [1] it was 1.14 nM; in the test with A431 cells (Homo sapiens, A-431, 72 h), 106 nM; in the test on NCI-H1975 cells (Homo sapiens, NCI-H1975, 72 h), 6.32 nM. For the same compound, the results for the Selectivity of wild-type/mutant-type (in test [1]; in the test with NCI-H1975 cells) were 4.31 and 16.72, respectively.
With `C=CC(=O)Nc1cc(Nc2ncc(C(F)(F)F)c(-n3ncc4cc(OC)ccc43)n2)c(OC)cc1N(C)CCN(C)C` [Example 49, N-(2-((2-(dimethylamino)ethyl)(methyl)amino)-4-methoxy-5-((4-(5-methoxy-1H-indazol-1-yl)-5-(trifluoromethyl)pyrimidin-2-yl)amino)phenyl)acrylamide], the IC50 worked out at 6.3 nM against wild-type EGFR enzyme; 0.17 nM in test [1]; 128 nM with A431 cells (Homo sapiens, A-431, 72 h); 1.93 nM with NCI-H1975 cells (Homo sapiens, NCI-H1975, 72 h). Further, the Selectivity of wild-type/mutant-type in test [1] worked out at 37.06; with NCI-H1975 cells it was 66.48.
Regarding `C=CC(=O)Nc1cc(Nc2nccc(-c3c[nH]c4cc(OC)ccc34)n2)c(OC)cc1N(C)CCN(C)C` [Example 97, N-(2-((2-(dimethylamino)ethyl)(methyl)amino)-4-methoxy-5-((4-(6-methoxy-1H-indol-3-yl)pyrimidin-2-yl)amino)phenyl)acrylamide], the half-maximal inhibitory concentration (IC50) worked out at 0.5 nM against wild-type EGFR enzyme; 0.18 nM in test [1]; 141 nM in the test on A431 cells (Homo sapiens, A-431, 72 h); 1.28 nM with NCI-H1975 cells (Homo sapiens, NCI-H1975, 72 h). The Selectivity of wild-type/mutant-type was 2.78 in test [1] and 109.92 in the test with NCI-H1975 cells.
Consider `C=CC(=O)Nc1cc(Nc2nccc(-c3cn(C)c4cc(OC)ccc34)n2)c(OC)cc1N(C)CCNC` [Example 127, N-(4-methoxy-5-((4-(6-methoxy-1-methyl-1H-indol-3-yl)pyrimidin-2-yl)amino)-2-(methyl(2-(methylamino)ethyl)amino)phenyl)acrylamide], for which the IC50 against wild-type EGFR enzyme is 2.3 nM; in test [1] it was 0.44 nM; in the test with A431 cells (Homo sapiens, A-431, 72 h), 88.2 nM; in the test with NCI-H1975 cells (Homo sapiens, NCI-H1975, 72 h), 2.98 nM. The Selectivity of wild-type/mutant-type in test [1] is 5.23; with NCI-H1975 cells it was 29.58.
